Results from PubChem BioAssay (NCI).
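Exposure lasted 48 hours, with cells grown in 96-well plates and compounds tested at five concentrations. TGI: total growth inhibition.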

Legend:
Experiment in all cases: growth of human tumour cells (NCI), 48 h
[1] = system: OVCAR-3 ovarian
[2] = system: LOX IMVI melanoma
[3] = system: MOLT-4 leukemia
[4] = system: HCC-2998 colon
[5] = system: A498 renal
[6] = system: MDA-MB-435
[7] = system: COLO 205 colon
[8] = system: SK-MEL-28 melanoma
[9] = system: OVCAR-5 ovarian
[10] = system: SW-620 colon
[11] = system: CCRF-CEM leukemia
[12] = system: CAKI-1 renal
[13] = system: MDA-MB-231 breast
[14] = system: SN12C renal
[15] = system: HT29 colon
[16] = system: UACC-257 melanoma
[17] = system: HS 578T breast
[18] = system: SF-295 CNS
[19] = system: HOP-92 NSCLC
[20] = system: UACC-62 melanoma
[21] = system: HOP-62 NSCLC
[22] = system: M14 melanoma
[23] = system: SK-MEL-5 melanoma
[24] = system: RXF 393 renal
[25] = system: TK-10 renal
[26] = system: MDA-N
[27] = system: OVCAR-4 ovarian
[28] = system: 786-0 renal
[29] = system: NCI/ADR-RES ovarian
[30] = system: HCT-116 colon
[31] = system: BT-549 breast
[32] = system: NCI-H460 lung
[33] = system: DU-145 prostate
[34] = system: EKVX NSCLC
[35] = system: SK-OV-3 ovarian
[36] = system: ACHN renal
[37] = system: SNB-19 CNS
[38] = system: MCF7 breast
[39] = system: MALME-3M melanoma
[40] = system: KM12 colon
[41] = system: A549 NSCLC
[42] = system: T-47D breast
[43] = system: HL-60(TB) leukemia
[44] = system: SK-MEL-2 melanoma
[45] = system: PC-3 prostate
[46] = system: IGROV1 ovarian
[47] = system: HCT-15 colon
[48] = system: SF-268 CNS
[49] = system: RPMI-8226 leukemia
[50] = system: NCI-H23 lung
[51] = system: SF-539 CNS
[52] = system: U251 CNS
[53] = system: OVCAR-8 ovarian
[54] = system: NCI-H522 lung

Measured: TGI

CC1(C)Cc2c(c3ccccc3c3nc4c(nc23)c2c(c3ccccc34)OC(C)(C)C2)O1
> 100 µM: all assays above
